Measurements from patent US6518005B2, “Silver halide multilayer color photographic material” (Ferrania, S.p.A., priority 2000, dated 2003).

Tests used:
[1] = Absorption of methanol solutions of the dyes (λmax and density at 400, 450, 500 nm); type: physicochemical; settings: for D400: density measured at 400 nm; for D400 / D450 / D500: methanol solution with density 0.6 at λmax; for D450: density measured at 450 nm; for D500: density measured at 500 nm; for λmax (nm): methanol solution, density 0.6 at λmax; for spectral region absorbed (in words): methanol solutions, from the data of Table 1
[2] = Solubility in tricresylphosphate and crystallization tendency on cooling; type: physicochemical; settings: for Solubility: in tricresylphosphate, under stirring at 60° C.; for Not-to-Crystallize Tendency: tricresylphosphate solution cooled at room temperature
Description: The compounds shown in Table 2 were added with a quantity of tricresylphosphate under stirring at 60° C. up to obtain a limpid solution. The samples were then cooled at room temperature and the crystallization tendency thereof was evaluated.

| Structure (SMILES) | D400 [1] | D450 [1] | D500 [1] | λmax (nm) [1] | spectral region absorbed (in words) [1] | spectral region absorbed (in words) ([1]; listed as Sample 11) | Solubility [2] | Not-to-Crystallize Tendency [2] | Not-to-Crystallize Tendency ([2]; listed as Sample 7) | spectral region absorbed (in words) ([1]; listed as Sample 12) |
| --- | --- | --- | --- | --- | --- | --- | --- | --- | --- | --- |
| CCCCS(=O)(=O)Nc1ccc(C2=NOC(=O)/C2=C\C2CN(CCC(=O)OCC)c3ccccc32)cc1 (single isomer, unassigned) [B] | 0.09 | 0.53 | 0.10 | 463 nm | mainly absorb in the blue region, but that the green region (500-600 nm) is also interested | – | – | – | – | – |
| CCCCS(=O)(=O)Nc1ccc(C2=NOC(=O)/C2=C\C2CN(CCC(=O)OCC)c3ccccc32)cc1 (centres unmarked) [C] | 0.45 | 0.03 | 0.00 | 377 nm | – | mainly absorb in the ultraviolet | – | – | – | – |
| CCCCS(=O)(=O)Nc1ccc(C2=NOC(=O)/C2=C\C2CN(CCC(=O)OCC)c3ccccc32)cc1 (centres unmarked) [Compound G] | 0.27 | 0.55 | 0.00 | 438 nm | – | – | good | not good | – | – |
| C=CCn1cccc1/C=C1\C(=O)ON=C1c1ccc(NS(=O)(=O)CCCC)cc1 [Compound I-2] | 0.41 | 0.24 | 0.00 | 421 nm | – | – | – | – | – | – |
| COc1ccc(C2=NOC(=O)/C2=C\c2ccc[nH]2)cc1 [Compound I-3] | 0.48 | 0.08 | 0.00 | 418 nm | – | – | – | – | – | – |
| CCOC(=O)CCn1cccc1/C=C1\C(=O)ON=C1c1ccc(OC)cc1 [Compound I-4] | 0.44 | 0.22 | 0.00 | 420 nm | – | – | – | – | – | – |
| CCOC(=O)Cn1cccc1/C=C1\C(=O)ON=C1c1ccc(OC)cc1 [Compound I-5] | 0.47 | 0.21 | 0.00 | 419 nm | – | – | – | – | – | – |
| C=CCn1cccc1/C=C1\C(=O)ON=C1C(C)(C)C [Compound I-6] | 0.52 | 0.17 | 0.00 | 415 nm | – | – | – | – | – | – |
| CCCCS(=O)(=O)Nc1ccc(C2=NOC(=O)/C2=C\c2cccn2C(CC)C(=O)OCCOCC)cc1 (centres unmarked) [Compound I-7] | 0.42 | 0.03 | 0.00 | 423 nm | – | – | – | good | do not exhibit any tendency to crystallize | – |
| CCCCS(=O)(=O)Nc1ccc(C2=NOC(=O)/C2=C\C2CN(CCC(=O)OCC)c3ccccc32)cc1 (centres unmarked) [D] | 0.35 | 0.00 | 0.00 | 374 nm | – | – | – | – | – | mainly absorb in the ultraviolet |
| CCCCS(=O)(=O)Nc1ccc(C2=NOC(=O)/C2=C\C2CN(CCC(=O)OCC)c3ccccc32)cc1 (centres unmarked) [E] | 0.26 | 0.50 | 0.00 | 437 nm | – | – | good | not good | – | – |
| CCCCS(=O)(=O)Nc1ccc(C2=NOC(=O)/C2=C\C2CN(CCC(=O)OCC)c3ccccc32)cc1 (centres unmarked) [F] | 0.28 | 0.54 | 0.00 | 437 nm | – | – | good | not good | – | – |
